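Exposure lasted 48 hours, with cells grown in 96-well plates and compounds tested at five concentrations. Definition used: TGI = concentration required for complete inhibition of growth.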
Legend:
Experiment in all cases: DTP human tumour cell line panel, 48 h
[1] = tested on: SK-MEL-2 melanoma
[2] = tested on: SW-620 colon
[3] = tested on: M14 melanoma
[4] = tested on: OVCAR-3 ovarian
[5] = tested on: IGROV1 ovarian
[6] = tested on: SF-268 CNS
[7] = tested on: RPMI-8226 leukemia
[8] = tested on: UACC-257 melanoma
[9] = tested on: LOX IMVI melanoma
[10] = tested on: HOP-62 NSCLC
[11] = tested on: SF-539 CNS
[12] = tested on: MDA-N
[13] = tested on: KM12 colon
[14] = tested on: HOP-92 NSCLC
[15] = tested on: HT29 colon
[16] = tested on: MDA-MB-435
[17] = tested on: SF-295 CNS
[18] = tested on: K-562 leukemia
[19] = tested on: EKVX NSCLC
[20] = tested on: HCT-15 colon
[21] = tested on: PC-3 prostate
[22] = tested on: MDA-MB-231 breast
[23] = tested on: SNB-75 CNS
[24] = tested on: SNB-19 CNS
[25] = tested on: HCC-2998 colon
[26] = tested on: CCRF-CEM leukemia
[27] = tested on: BT-549 breast
[28] = tested on: ACHN renal
[29] = tested on: A549 NSCLC
[30] = tested on: OVCAR-4 ovarian
[31] = tested on: MCF7 breast
[32] = tested on: MOLT-4 leukemia
[33] = tested on: MALME-3M melanoma
[34] = tested on: OVCAR-8 ovarian
[35] = tested on: NCI/ADR-RES ovarian
[36] = tested on: NCI-H23 lung
[37] = tested on: OVCAR-5 ovarian
[38] = tested on: NCI-H522 lung
[39] = tested on: SK-MEL-28 melanoma
[40] = tested on: RXF 393 renal
[41] = tested on: NCI-H226 lung
[42] = tested on: HS 578T breast
[43] = tested on: U251 CNS
[44] = tested on: SN12C renal
[45] = tested on: T-47D breast
[46] = tested on: UO-31 renal
[47] = tested on: DU-145 prostate
[48] = tested on: HCT-116 colon
[49] = tested on: 786-0 renal
[50] = tested on: UACC-62 melanoma
[51] = tested on: COLO 205 colon
[52] = tested on: A498 renal
[53] = tested on: SK-OV-3 ovarian
[54] = tested on: SR leukemia
[55] = tested on: NCI-H460 lung
[56] = tested on: CAKI-1 renal
[57] = tested on: SK-MEL-5 melanoma
[58] = tested on: TK-10 renal

Compound `COc1cc2c(cc1OCc1ccccc1)NC(=O)[C@@H]1C[C@@H](O)CN1C2=O` has a TGI [1] of over 100 µM, a TGI [2] of over 100 µM and a TGI [3] of over 100 µM. For the same compound, the TGI [4] was over 100 µM, the TGI [5] was over 100 µM and the TGI [6] was over 100 µM. The TGI [7] was over 100 µM, the TGI [8] was over 100 µM and the TGI [9] was over 100 µM. For the same compound, the TGI [10] was over 100 µM, the TGI [11] was over 100 µM and the TGI [12] was over 100 µM. For the same compound, the TGI [13] was over 100 µM, the TGI [14] was over 100 µM and the TGI [15] was over 100 µM. For the same compound, the TGI [16] was over 100 µM, the TGI [17] was over 100 µM and the TGI [18] was over 100 µM. For the same compound, the TGI [19] was over 100 µM, the TGI [20] was over 100 µM and the TGI [21] was over 100 µM. The TGI [22] was over 100 µM, the TGI [23] was over 100 µM and the TGI [24] was over 100 µM. It also gave a TGI [25] of over 100 µM, a TGI [26] of over 100 µM and a TGI [27] of over 100 µM. It also gave a TGI [28] of over 100 µM, a TGI [29] of over 100 µM and a TGI [30] of over 100 µM. The TGI [31] was over 100 µM, the TGI [32] was over 100 µM and the TGI [33] was over 100 µM. The TGI [34] was over 100 µM, the TGI [35] was over 100 µM and the TGI [36] was over 100 µM. The TGI [37] was over 100 µM, the TGI [38] was over 100 µM and the TGI [39] was over 100 µM. For the same compound, the TGI [40] was over 100 µM, the TGI [41] was over 100 µM and the TGI [42] was over 100 µM. For the same compound, the TGI [43] was over 100 µM, the TGI [44] was over 100 µM and the TGI [45] was over 100 µM. It also gave a TGI [46] of over 100 µM, a TGI [47] of over 100 µM and a TGI [48] of over 100 µM. The TGI [49] was over 100 µM, the TGI [50] was over 100 µM and the TGI [51] was over 100 µM. The TGI [52] was over 100 µM, the TGI [53] was over 100 µM and the TGI [54] was over 100 µM. It also gave a TGI [55] of over 100 µM, a TGI [56] of over 100 µM and a TGI [57] of over 100 µM. For the same compound, the TGI [58] was over 100 µM.

In the case of `CN(C)CCCN1C(=O)N(CCCN(C)C)c2c3cc(O)ccc3nc3c([N+](=O)[O-])ccc1c23`, the TGI [1] is reported as 29.8 µM, the TGI [2] is reported as 53.2 µM and the TGI [3] is reported as 79.1 µM. For the same compound, the TGI [4] was 67.6 µM, the TGI [5] was 21.3 µM and the TGI [6] was 26.3 µM. It also gave a TGI [7] of 63.3 µM, a TGI [8] of over 100 µM and a TGI [9] of 26.6 µM. It also gave a TGI [10] of 52.7 µM, a TGI [11] of 35.5 µM and a TGI [12] of over 100 µM. The TGI [13] was 29.8 µM, the TGI [14] was 36.7 µM and the TGI [15] was 27.2 µM. The TGI [16] was 36.2 µM, the TGI [17] was over 100 µM and the TGI [18] was 23.7 µM. For the same compound, the TGI [20] was over 100 µM, the TGI [21] was 24 µM and the TGI [22] was 28.3 µM. For the same compound, the TGI [23] was over 100 µM, the TGI [24] was 23.8 µM and the TGI [25] was 26.8 µM. It also gave a TGI [27] of 33.7 µM, a TGI [28] of 62.6 µM and a TGI [29] of 39.6 µM. The TGI [30] was 17.8 µM, the TGI [31] was 40.4 µM and the TGI [33] was 33.9 µM. It also gave a TGI [34] of 37.2 µM, a TGI [35] of over 100 µM and a TGI [36] of 48 µM. For the same compound, the TGI [37] was over 100 µM, the TGI [38] was 20.5 µM and the TGI [39] was over 100 µM. It also gave a TGI [40] of 25.1 µM, a TGI [41] of 61.7 µM and a TGI [42] of 60 µM. The TGI [43] was 30.2 µM, the TGI [44] was 49.1 µM and the TGI [45] was 80.2 µM. It also gave a TGI [46] of 63.6 µM, a TGI [47] of 64 µM and a TGI [48] of 38.2 µM. It also gave a TGI [49] of 27.2 µM, a TGI [50] of 27.3 µM and a TGI [51] of 27.5 µM. The TGI [52] was 40.3 µM, the TGI [53] was over 100 µM and the TGI [55] was 70.4 µM. It also gave a TGI [56] of 78.2 µM, a TGI [57] of 30.4 µM and a TGI [58] of over 100 µM.

— PubChem BioAssay (NCI)
